The values that follow are results of earlier work, collected in patent US20090202442A1, “Enerceutical activation of the alternative cellular energy (ACE) pathway in therapy of diseases” (priority 2008, published 2009).

The data set has as its system herpes simplex virus (HSV), herpes zoster virus (HZV) and human papillomavirus (HPV) infections.

On to `Cc1cc2nc3ccc(N(C)C)cc3nc2cc1N.Cl` [neutral red], for which the “healing of active skin lesions” value (neutral red dye triggered UV fluorescence, HSV, HZV, HPV lesions) is reported as “successfully used in expediting the healing”. Moreover, the “future outbreaks of recurrent herpes” value (patients with prior history of recurrent herpes, treated when no active lesion present) is “successfully used in preventing future outbreaks”.
